# According to patent US20230172894A1, “COMBINATION TREATMENT FOR FUMARATE-RELATED DISEASES” (IMCYSE SA, priority 2020, published 2023):
# Counter-ions that a name gives are not always drawn.
# Assays:
# [1] = system: experimental auto-immune encephalomyelitis (EAE) development in mice; settings: Example 2; for mice died in group: 16 mice per group; for disease onset: peptide 30 μg/Alum s.c. days 4, 9, 14, 19, BG-12 100 mg/kg p.o. BID days 0 to 27; for disease onset / AUC (area under the curve) of EAE scores / MMS (mean maximal score) / end score (clinical EAE score 0-5): single agents vs negative control, combinations vs peptides only or BG-12 only
# Source text: Example 2: Effect of the therapeutic administration of an immunogenic peptide comprising a MOG35-55 MHCII T cell epitope linked or not to an HCPYC oxidoreductase motif in combination with dimethyl fumarate (BG-12, […]™) on experimental auto-immune encephalomyelitis (EAE) development in mice.
# The study used a total of 96 female C57BL/6 mice (Taconic Biosciences, 10 weeks old on Day 0). Mice were acclimated for 14 days prior to the first injection. Mice were assigned to groups in a balanced manner to achieve similar average weight across the groups at the start of the study.
# Treatment 1 was administered once on each of the days indicated in Table 3, s.c., at a volume of 0.05 mL/site, each mouse receiving injection at two sites, for a total of 0.1 mL/mouse/dosing day. IMCY-0189 or MOG35-55 peptide total dose was 30 μg per administration.
# BG-12 was dosed at 100 mg/kg.
# All dosing were done at the same time (+/−1 hour) each dosing day. For the BID groups there were no less than 10 and no more than 14 hours between doses.
# Lyophilized mouse MOG35-55 peptide with the sequence […] (SEQ ID NO:205), comprising the mouse Myelin Oligodendrocyte Glycoprotein (MOG35-55) MHCII T cell epitope […] (SEQ ID NO:169), was solubilized immediately before use. Lyophilized MOG35-55 peptide was thawed at room temperature for 10 minutes, resuspended in Na Acetate buffer 50 mM NaCl 0.9% pH 5.4 and incubated at room temperature for 10 minutes. Reconstituted MOG35-55 peptide was then mixed with Imject™ Alum Adjuvant before injection. Note that the positions 35 to 55 refer to the mature protein, i.e. after cleavage of the signal peptide (AA 1-29), defined by SEQ ID NO: 208. In the full-length amino acid sequence of MOG (SEQ ID NO: 184), said peptide would be at positions 64-84.
# Lyophilized IMCY-0189 was thawed at room temperature for 10 minutes, resuspended in Na Acetate buffer 50 mM NaCl 0.9% pH 5.4 and incubated at room temperature for 10 minutes. Reconstituted peptide was then mixed with Imject™ Alum Adjuvant before injection.
# For Treatment 2, vehicle was 0.5% HPMC, 0.2% Tween 20, and 50 mM citrate buffer at pH 4. BG-12 (Santa Cruz Biotechnology, sc-239774) and was prepared at least every 2 weeks. At each preparation the required amount of BG-12 was weighed out into a mortar and triturated with a pestle. Vehicle was then added in small increments and mixed until the final volume was reached. The material was then vortexed and sonicated in a water bath until a homogeneous suspension was obtained. Formulated BG-12 was stored at 4° C., stirring continuously.
# EAE induction, scoring and statistical analysis were performed as described in example 1.
# EAE development was evaluated by comparing clinical EAE readouts for all groups to the negative control (Saline/Vehicle) group.
# [2] = system: experimental auto-immune encephalomyelitis (EAE) development in mice; assay: Example 3: serum neurofilament light (NF-L) levels in EAE mice; format: in vivo, female C57BL/6 mice; settings: Day 28 serum, vs negative control
# Procedure: (§1) On Day 28, blood was collected from all mice into gel clot activator tubes and allowed to clot at room temperature for ˜30 minutes. Blood is then centrifuged at ˜10000 g for 5 minutes. Serum was transferred into Eppendorf tubes and stored at −80° C. until shipment to Quanterix™. Serum Neurofilament light (NF-L) protein levels were quantified using Simoa® NF-light Advantage kit as described in example 1.
# [3] = system: experimental auto-immune encephalomyelitis (EAE) development in mice; assay: Example 4: serum neurofilament light (NF-L) levels in EAE mice; format: in vivo, female C57BL/6 mice; settings: Day 28 serum, vs negative control
# Procedure: as §1
# Serum neurofilaments levels were quantified as described in example 3.
Molecule,mice died in group [1],disease onset [1],AUC (area under the curve) of EAE scores [1],MMS (mean maximal score) [1],end score (clinical EAE score 0-5) [1],serum NF-L levels [2],serum NF-L levels [3]
"COC(=O)/C=C/C(=O)OC [BG-12, dimethyl fumarate, reference compound]",No mice died,postponed disease onset,statistically significant reduced,statistically significant reduced,reduced end score,statistically significant reduced NF-L levels,statistically significant reduced NF-L levels
HCPYCGWYRSPFSRVVHLYR [IMCY-0189],1 mice,postponed disease onset,statistically significant reduced,statistically significant reduced,reduced end score,statistically significant reduced NF-L levels,statistically significant reduced NF-L levels
